In PMC7155171, “Probing the Open Global Health Chemical Diversity Library for Multistage-Active Starting Points for Next-Generation Antimalarials” (ACS Infectious Diseases, 2020):
Like-named read-outs stand apart in the source and are kept apart here.

Assays:
[1] = system: P. falciparum Dd2; test: SYBR green I asexual blood stage proliferation assay (96 h); assay type: cell-based, Plasmodium falciparum; settings: Plasmodium falciparum, DD2, 11-pt dose response, 96hr
[2] = system: P. berghei liver stage (PbLuc); test: P. berghei luciferase liver stage (PbLuc) assay in HepG2-A16-CD81 hepatocytes; assay type: cell-based, Plasmodium berghei; settings: for IC50: HepG2-A16-CD81, 12pt dose response, read-out: PbLuc 12pt dose response: IC50; for Emax: HepG2-A16-CD81, 48 h, 12pt dose response, maximum inhibition
[3] = system: P. falciparum Dd2 (PfLuc) line expressing firefly luciferase, asexual blood stage; test: microbe, parasite or virus in culture; assay type: cell-based, Plasmodium falciparum; settings: Plasmodium falciparum
[4] = HepG2 cytotoxicity screening (CellTiter-Glo); settings: human, uninfected HepG2-A16-CD81 (EGFP) hepatocytes
[5] = biological target: recombinant firefly luciferase (Photinus pyralis, UniProt P08659); test: biochemical; settings: dose response
[6] = Sybr Green I, read-out: CDD P. falciparum Sybr Green I ABS 11-pt Reconfirmation Dose Response (96hr): IC50
[7] = Sybr Green I, read-out: CDD P. falciparum Sybr Green I ABS 11-pt Reconfirmation Dose Response (96hr): Maximum inhibition (%)
[8] = DD2, read-out: CDD P. falciparum Luciferase ABS 11-pt Reconfirmation Dose Response (48hr): IC50 (μM), 11-pt dose response, 48hr
[9] = DD2, 8-pt dose response, 96hr, read-out: CDD P. falciparum Luciferase ABS 8-pt Reconfirmation Dose Response (96hr): IC50
[10] = DD2, 8-pt dose response, 96hr, read-out: CDD P. falciparum Luciferase ABS 8-pt Reconfirmation Dose Response (96hr): Maximum inhibition (%)
[11] = DD2, 11-pt dose response, 48hr, read-out: CDD P. falciparum Luciferase ABS 11-pt Reconfirmation Dose Response (48hr): Maximum inhibition (%)
[12] = DD2, 11-pt dose response, 96hr, read-out: CDD P. falciparum Luciferase ABS 11-pt Reconfirmation Dose Response (96hr): IC50
[13] = DD2, 11-pt dose response, 96hr, read-out: CDD P. falciparum Luciferase ABS 11-pt Reconfirmation Dose Response (96hr): Maximum inhibition (%)

recombinant firefly luciferase, sequence (P08659 whole entry): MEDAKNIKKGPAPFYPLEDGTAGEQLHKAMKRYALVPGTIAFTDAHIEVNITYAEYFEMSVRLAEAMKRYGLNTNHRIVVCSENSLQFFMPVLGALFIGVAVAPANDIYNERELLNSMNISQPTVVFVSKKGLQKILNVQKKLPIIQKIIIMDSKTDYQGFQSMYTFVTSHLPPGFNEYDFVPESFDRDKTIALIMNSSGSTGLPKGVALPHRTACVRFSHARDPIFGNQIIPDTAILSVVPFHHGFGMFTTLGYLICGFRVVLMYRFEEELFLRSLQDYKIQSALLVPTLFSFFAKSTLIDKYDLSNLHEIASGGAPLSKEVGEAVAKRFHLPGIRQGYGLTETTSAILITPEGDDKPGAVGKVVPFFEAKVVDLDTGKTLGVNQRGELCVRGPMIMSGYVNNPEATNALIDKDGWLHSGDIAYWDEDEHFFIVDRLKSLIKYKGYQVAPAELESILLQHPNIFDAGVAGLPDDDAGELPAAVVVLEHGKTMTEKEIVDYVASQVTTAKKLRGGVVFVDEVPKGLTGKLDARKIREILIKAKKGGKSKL

SMILES	inhibition at 2 µM [4]	other results
CCc1cnc(N)nc1NC(C)c1ccc(C)c(C)c1 (stereo not drawn) [DDD01250400]		IC50 ([1]; read-out: P. falciparum Sybr Green I ABS 11-pt Reconfirmation Dose Response (96hr): IC50): 4.48 µM; Emax ([1]; read-out: P. falciparum Sybr Green I ABS 11-pt Reconfirmation Dose Response (96hr): Maximum inhibition (%)): 62.1%; confirmed liver stage activity [2]: confirmed liver stage activity; IC50 ([3]; DD2, read-out: P. falciparum Luciferase ABS 11-pt Reconfirmation Dose Response (48hr): IC50, 11-pt dose response, 48hr): 2.84 µM; IC50 ([3]; DD2, 8-pt dose response, 96hr, read-out: P. falciparum Luciferase ABS 8-pt Reconfirmation Dose Response (96hr): IC50): 1.66 µM; Emax ([3]; DD2, 8-pt dose response, 96hr, read-out: P. falciparum Luciferase ABS 8-pt Reconfirmation Dose Response (96hr): Maximum inhibition (%)): 81%; Emax ([3]; DD2, 11-pt dose response, 48hr, read-out: P. falciparum Luciferase ABS 11-pt Reconfirmation Dose Response (48hr): Maximum inhibition (%)): 94.8%; IC50 ([3]; DD2, 11-pt dose response, 96hr, read-out: P. falciparum Luciferase ABS 11-pt Reconfirmation Dose Response (96hr): IC50): 0.373 µM; Emax ([3]; DD2, 11-pt dose response, 96hr, read-out: P. falciparum Luciferase ABS 11-pt Reconfirmation Dose Response (96hr): Maximum inhibition (%)): 99.6%
CC(O)CN1CCC(CNCc2cccc(Cl)c2)CC1 (stereo not drawn) [DDD01300263]		IC50 [1, 6]: 3.65 µM; Emax [1, 7]: 89.5%; IC50 [3, 8]: 5.96 µM; IC50 [3, 9]: 0.76 µM; Emax [3, 10]: 89.7%; Emax [3, 11]: 89%; IC50 [3, 12]: 2.57 µM; Emax [3, 13]: 98%
CC(O)CN1CCC(CNCc2cccc(Br)c2)CC1 (stereo not drawn) [DDD01304344]		IC50 [1, 6]: 2.06 µM; Emax [1, 7]: 93.8%; IC50 [3, 8]: 3.63 µM; IC50 [3, 9]: 0.58 µM; Emax [3, 10]: 91.2%; Emax [3, 11]: 92.1%; IC50 [3, 12]: 1.64 µM; Emax [3, 13]: 98.2%
CC(C)c1nn(C)c(Cl)c1CNCC(O)c1cccc(F)c1 (stereo not drawn) [DDD01304823]		IC50 [1, 6]: 3.66 µM; Emax [1, 7]: 92.5%; IC50 [3, 8]: 3.48 µM; IC50 [3, 9]: 0.58 µM; Emax [3, 10]: 92.1%; Emax [3, 11]: 89.6%; IC50 [3, 12]: 1.39 µM; Emax [3, 13]: 98.7%
CC(C)NC(=O)CNC(=O)C12CCC(=O)N1c1cc(Cl)ccc1S2 (stereo not drawn) [UCSD-0589377]	3.84%	
c1nc(N2CCCC(Cn3cncn3)C2)c2sccc2n1 (stereo not drawn) [UCSD-0620442]	1.85%	
N#Cc1nc(COc2ccc3c(c2)OCO3)oc1NC1CCCCC1 [UCSD-0630877]	1.44%	
Cc1nc(C)c(CN2CCOC[C@H](Oc3ccccc3)C2)s1 [UCSD-0784893]	25.2%	
Cc1cnc2c(c1NCc1cccnc1)c(=O)n(C)c(=O)n2C [UCSD-0787013]	5.36%	
CCN1C[C@@H]2[C@@H](OC)CCN(C(=O)c3cc(C)nn3CC)[C@@H]2C1 [UCSD-0791117]	-3.65%	
CCS(=O)(=O)NCC1OCCc2cn(CC3CCOCC3)nc21 (stereo not drawn) [UCSD-0791354]	-4.05%	
Cn1cnnc1S(=O)(=O)C1CCN(S(=O)(=O)c2ccc(F)c(Cl)c2)CC1 [UCSD-0795178]	2.47%	
CCn1nc(C)c2c1cnn2CCNS(=O)(=O)c1cccs1 [UCSD-0797219]	-1.63%	
CCCNc1cc(-c2c[nH]nc2C2CCN(C(=O)C3CCC3)C2)ccn1 (stereo not drawn) [UCSD-0798526]	83.5%	
Cc1nc(NCc2nonc2C)cc(C(C)Cn2nc(C)c(C)c2C)n1 (stereo not drawn) [UCSD-0799497]	87.2%	inhibition at 10 µM ([2]; Plasmodium berghei, HepG2-A16-CD81, primary screen, 10 uM): 60.2%
CCc1nnc2n1CCN(c1nc(C)cc(N(C)C)n1)C2 [UCSD-0803797]	5.32%	
CNC(=O)c1cccnc1NCc1ccc(Cn2ccnc2)cc1 [UCSD-0807977]	73.6%	
COc1cccc(CN2CCCC2c2ccc[nH]2)c1 (stereo not drawn) [UCSD-0808841]	-1.63%	
O=C(c1cnc(OCC(F)(F)F)c(Cl)c1)N1CCc2ccc(O)cc2C1 [UCSD-0809130]	-5.64%	
COCCCC(=O)Nc1cc(Cl)c(Cl)cn1 [UCSD-0809266]	59.5%	
Cc1cc(C)c(CCNC(=O)CN2CCCN(C(N)=O)CC2)c(C)c1 [UCSD-0809576]	-4.31%	
CC(C)(C)n1ncc2c1CCCC2NCc1ccc2c(c1)CCO2 (stereo not drawn) [UCSD-0811334]	2.05%	
O=C(NC1CC1)c1cc(NC(=O)N2CCOCC2)ccc1Cl [UCSD-0811531]	1.26%	
CCCNC(=O)CN1CCOC(CC)C1 (stereo not drawn) [UCSD-0814421]	-1.44%	
Clc1cnccc1NCc1cccc(COC2CCOCC2)c1 [UCSD-0814625]	43.7%	
CC(C)n1cnnc1C1CCCN(S(=O)(=O)CC2CCCC2)C1 (stereo not drawn) [UCSD-0815907]	27.3%	
CS(=O)(=O)CCC(=O)NC1(c2cccc(C(F)(F)F)c2)CCC1 [UCSD-0816629]	-9.29%	
CC(NCc1cccs1)c1ccc(OCc2nccn2C)cc1 (stereo not drawn) [UCSD-0817286]	-3.54%	

SMILES	inhibition at 2 µM [4]	other results
CCc1nnsc1C(=O)NC1CCN(CCOc2ccc(Br)cc2)CC1 [UCSD-0818165]	23.1%	
Cc1cc(Br)cnc1NCCN1CCC(N(C)C)CC1 [UCSD-0818517]	4.34%	
CC(C)CC(C)N(C)C(=O)CCn1cccn1 (stereo not drawn) [UCSD-0818578]	-0.31%	
Cc1nc(C(=O)N2CC[C@@]3(C[C@@H](NS(C)(=O)=O)CCO3)C2)cs1 [UCSD-0821817]	25.6%	
c1ccc(OC2COC3(CCN(Cc4ccccn4)CC3)C2)cc1 (stereo not drawn) [UCSD-0822599]	16.7%	
CN(Cc1ccncc1)C1COC2(CCN(Cc3nccn3C)CC2)C1 (stereo not drawn) [UCSD-0822929]	2.08%	
CN1CCN(CCc2ncnn2-c2ccc3c(c2)OCO3)CC1 [UCSD-0825202]	8.32%	
COc1ccc(CN2CCC=C(C(C)NC(C)=O)C2)cc1 (stereo not drawn) [UCSD-0826536]	6.35%	
OC(c1ccccn1)C1CCN(Cc2cc3n(n2)CCNC3)CC1 (stereo not drawn) [UCSD-0826546]	-15.7%	
CN1CCC(N(C)CCC(=O)N2CCC(CCc3ccccc3)CC2)C1 (stereo not drawn) [UCSD-0826822]	18.9%	
CCc1c(C(=O)N2CCN(C)[C@@H]3CS(=O)(=O)C[C@@H]32)[nH]c2ccccc12 [UCSD-0827053]	-0.18%	
Cc1nc(NCc2noc(C3CCCO3)n2)c2sccc2n1 (stereo not drawn) [UCSD-0827338]	37.4%	
CC(C)(C)c1ncc(C(=O)NCCSc2ccccn2)c(O)n1 [UCSD-0828026]	27.1%	
O=C1N(CC2CC2)CCCC1(O)CN1CCc2[nH]ncc2C1 (stereo not drawn) [UCSD-0829471]	2.23%	
Cc1ccc(NC(=O)CNC(C)CN2CCCCC2)c(F)c1 (stereo not drawn) [UCSD-0831198]	-1.94%	
N[C@@H]1CC[C@H](C(=O)NCCn2cc(Cl)cn2)C1 [UCSD-0831589]	-3.85%	
NCC1CCN(C2CCN(c3ccc(-c4ccco4)cc3)CC2)C1 (stereo not drawn) [UCSD-0833151]	3.93%	IC50 [4]: 14.1 µM; IC50 ([2]; Plasmodium berghei): 4.7 µM; Emax ([2]; Plasmodium berghei): 99.4%
COc1ccc(C(=O)C2CCCN(c3cc(OC)ncn3)C2)c(C)c1 (stereo not drawn) [UCSD-0833269]	27.4%	
COc1cc(Oc2ncccc2C(F)(F)F)ccc1CN1CCCC1 [UCSD-0833465]	1.7%	
Cc1cc(C)cc(CN2CCN(Cc3cccc(CCN)c3)CC2=O)c1 [UCSD-0834514]	-1.16%	
Cc1csc2ncnc(N3CCC(Cn4cc(C(C)(C)O)nn4)CC3)c12 [UCSD-0835726]	4.96%	Emax ([5]; maximum inhibition, read-out: rLuc inhibition dose response: Maximum inhibition (%)): 5.67%; IC50 ([5]; read-out: rLuc inhibition dose response: IC50): > 25 µM; IC50 [4]: > 25 µM; IC50 ([2]; Plasmodium berghei): 4.82 µM; Emax ([2]; Plasmodium berghei): 82.1%
CN(C)S(=O)(=O)c1csc(C(=O)N2CCSCC2)c1 [UCSD-0836661]	3.97%	
Nc1cc(N2CCC(c3cc(Cc4ccccc4)n[nH]3)CC2)ccn1 [UCSD-0836781]	-2.51%	
CCS(=O)(=O)N(C)c1ccc(C(=O)N2CCCC(C)C2)cc1 (stereo not drawn) [UCSD-0838984]	8.06%	
O=C1NCCN1C1CCN(Cc2nc(-c3ccccc3)no2)CC1 [UCSD-0839728]	-6.19%	
Cc1nn(C)c(Cl)c1C1CCCN1C(=O)c1ccc(C(N)=O)cn1 (stereo not drawn) [UCSD-0841146]	26.8%	
COc1cccc(-n2nnc(C(=O)N3CCN(C)CC3C)c2C)c1 (stereo not drawn) [UCSD-0845525]	69.9%	
